Measurements: the NIST ThermoML archive (doi:10.1016/j.fluid.2011.11.016)
Numbers after ± are expanded uncertainties.

Experiment: xn = mol fraction of the nth substance listed
Conditions: 298.15 K, 101.3 kPa, Liquid, Vibrating tube method

mass density (x2 = 0) [kg/m3]	mass density (x2 = 0.0503) [kg/m3]	mass density (x2 = 0.0991) [kg/m3]	mass density (x2 = 0.2021) [kg/m3]	mass density (x2 = 0.3118) [kg/m3]	mass density (x2 = 0.3926) [kg/m3]	mass density (x2 = 0.5039) [kg/m3]	mass density (x2 = 0.666) [kg/m3]	mass density (x2 = 0.7062) [kg/m3]	mass density (x2 = 0.8061) [kg/m3]	mass density (x2 = 0.9061) [kg/m3]	mass density (x2 = 0.9539) [kg/m3]	mass density (x1 = 1) [kg/m3]	Structure (SMILES)
773.88 ± 0.13	766.95 ± 0.14	760.53 ± 0.14	748.16 ± 0.15	735.69 ± 0.15	726.61 ± 0.15	717.21 ± 0.16	703.79 ± 0.17	700.61 ± 0.17	692.71 ± 0.17	685.62 ± 0.18	682.6 ± 0.18	–	C1CCCCC1 [cyclohexane] + CCCCCCC
–	–	–	–	–	–	–	–	–	–	–	–	679.57 ± 0.18	CCCCCCC [heptane] + C1CCCCC1
